Data published in ChEMBL document CHEMBL1909046, “DrugMatrix in vitro pharmacology data”.

Tests used:
[1] = target: C-C chemokine receptor type 5 (Homo sapiens, UniProt P51681); type: cell membranes, Membrane; conditions: hek293; also: in other assays of this panel Not Active means under 50% inhibition at 10 µM
[2] = target: Mitogen-activated protein kinase 1 (Homo sapiens, UniProt P28482); assay: DRUGMATRIX: Protein Serine/Threonine Kinase, ERK2 enzyme inhibition (substrate: Myelin Basic Protein); set-up: species or system Escherichia coli; conditions: Not Active = under 50% inhibition at 10 µM
Chain of Mitogen-activated protein kinase 1 (P28482 whole entry): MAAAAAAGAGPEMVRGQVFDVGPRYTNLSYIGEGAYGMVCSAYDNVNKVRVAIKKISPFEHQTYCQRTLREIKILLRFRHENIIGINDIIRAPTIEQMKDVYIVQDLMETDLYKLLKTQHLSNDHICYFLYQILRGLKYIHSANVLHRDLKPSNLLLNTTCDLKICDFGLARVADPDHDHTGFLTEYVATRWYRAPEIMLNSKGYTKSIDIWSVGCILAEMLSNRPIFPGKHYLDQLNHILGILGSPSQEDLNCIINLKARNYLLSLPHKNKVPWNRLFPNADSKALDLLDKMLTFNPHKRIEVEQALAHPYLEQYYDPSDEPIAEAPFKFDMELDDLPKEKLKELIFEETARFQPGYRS

[3] = DRUGMATRIX: Glutamate, AMPA radioligand binding (ligand: [3H] AMPA); type: cell membranes, Rattus norvegicus, Wistar, Cerebral cortex, Membrane; conditions: Not Active = under 50% inhibition at 10 µM
[4] = DRUGMATRIX: Glutamate, Kainate radioligand binding (ligand: [3H] Kainic acid); type: cell membranes, Rattus norvegicus, Wistar, Brain, Membrane; conditions: Not Active = under 50% inhibition at 10 µM
[5] = DRUGMATRIX: GABAA, Flunitrazepam, Central radioligand binding (ligand: [3H] Flunitrazepam); type: cell membranes, Rattus norvegicus, Wistar, Brain, Membrane; conditions: Not Active = under 50% inhibition at 10 µM
[6] = target: Histamine H2 receptor (Homo sapiens, UniProt P25021); type: cell membranes, CHO-K1, Membrane; conditions: cho-k1; also: in other assays of this panel Not Active means under 50% inhibition at 10 µM
Chain of Histamine H2 receptor (P25021 whole entry): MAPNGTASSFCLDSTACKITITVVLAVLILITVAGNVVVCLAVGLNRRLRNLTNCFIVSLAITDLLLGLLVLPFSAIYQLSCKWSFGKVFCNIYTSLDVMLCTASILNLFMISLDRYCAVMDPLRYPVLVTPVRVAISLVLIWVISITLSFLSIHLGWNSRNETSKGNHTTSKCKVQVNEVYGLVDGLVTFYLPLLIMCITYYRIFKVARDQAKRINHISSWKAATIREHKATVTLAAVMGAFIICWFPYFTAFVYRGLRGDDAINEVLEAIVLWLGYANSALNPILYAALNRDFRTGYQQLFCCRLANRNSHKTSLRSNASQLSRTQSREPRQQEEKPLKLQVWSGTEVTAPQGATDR

[7] = DRUGMATRIX: Platelet-Derived Growth Factor (PDGF) radioligand binding (ligand: [125I] PDGF); type: cell-based; conditions: nih3t3; Not Active = under 50% inhibition at 10 µM

Chain of C-C chemokine receptor type 5 (P51681 whole entry): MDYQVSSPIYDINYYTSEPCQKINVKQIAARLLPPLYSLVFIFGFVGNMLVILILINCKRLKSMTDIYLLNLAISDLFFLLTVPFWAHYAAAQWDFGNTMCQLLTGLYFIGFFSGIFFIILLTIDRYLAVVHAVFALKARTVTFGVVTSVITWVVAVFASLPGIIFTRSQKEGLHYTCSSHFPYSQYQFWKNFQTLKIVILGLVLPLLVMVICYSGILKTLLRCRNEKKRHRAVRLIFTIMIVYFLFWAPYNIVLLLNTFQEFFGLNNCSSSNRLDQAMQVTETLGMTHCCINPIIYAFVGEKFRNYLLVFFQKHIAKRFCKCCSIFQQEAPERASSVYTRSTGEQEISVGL

Compound | IC50 [1] | IC50 [2] | IC50 [3] | Ki [3] | IC50 [4] | Ki [4] | IC50 [5] | Ki [5] | IC50 [6] | IC50 [7] | Ki [7] | IC50 ([5]; read-out: IC50) | Ki ([5]; read-out: Ki)
CCOc1nc2cccc(C(=O)O)c2n1Cc1ccc(-c2ccccc2-c2nnn[nH]2)cc1 | Not Active | Not Active | Not Active | Not Active | Not Active | Not Active | Not Active | Not Active | Not Active | Not Active | Not Active | – | –
O=C(O)CCCc1cccs1 | Not Active | Not Active | Not Active | Not Active | Not Active | Not Active | Not Active | Not Active | Not Active | Not Active | Not Active | – | –
COc1ccccc1N | Not Active | Not Active | Not Active | Not Active | Not Active | Not Active | Not Active | Not Active | Not Active | Not Active | Not Active | – | –
O=C(c1ccccc1F)N1CCC(Cc2ccccc2)CC1 | Not Active | Not Active | Not Active | Not Active | Not Active | Not Active | Not Active | Not Active | Not Active | Not Active | Not Active | – | –
Cc1c(O)cccc1C(=O)N[C@@H](CSc1ccccc1)[C@H](O)CN1C[C@H]2CCCC[C@H]2C[C@H]1C(=O)NC(C)(C)C | Not Active | Not Active | Not Active | Not Active | Not Active | Not Active | Not Active | Not Active | Not Active | Not Active | Not Active | – | –
CC(O)COC[C@H]1O[C@@H]2O[C@H]3[C@H](O)[C@@H](O)[C@@H](O[C@H]4[C@H](O)[C@@H](O)[C@@H](O[C@H]5[C@H](O)[C@@H](O)[C@@H](O[C@H]6[C@H](O)[C@@H](O)[C@@H](O[C@H]7[C@H](O)[C@@H](O)[C@@H](O[C@H]8[C@H](O)[C@@H](O)[C@@H](O[C@H]1[C@H](O)[C@H]2O)O[C@@H]8COCC(C)O)O[C@@H]7COCC(C)O)O[C@@H]6COCC(C)O)O[C@@H]5COCC(C)O)O[C@@H]4COCC(C)O)O[C@@H]3COCC(C)O (stereo partly drawn) [2-HYDROXYPROPYL-BETA-CYCLODEXTRIN] | Not Active | Not Active | Not Active | Not Active | Not Active | Not Active | Not Active | Not Active | Not Active | Not Active | Not Active | – | –
NC(=O)c1cccc(N)c1 [3-AMINOBENZAMIDE] | Not Active | Not Active | Not Active | Not Active | Not Active | Not Active | Not Active | Not Active | Not Active | Not Active | Not Active | – | –
C[C@H]1O[C@H](O[C@H]2[C@H](O)[C@@H](O)[C@@H](O[C@H]3[C@H](O)[C@@H](O)C(O)O[C@@H]3CO)O[C@@H]2CO)[C@H](O)[C@@H](O)[C@@H]1N[C@H]1C=C(CO)[C@@H](O)[C@H](O)[C@H]1O (stereo partly drawn) [ACARBOSE] | Not Active | Not Active | Not Active | Not Active | Not Active | Not Active | Not Active | Not Active | Not Active | Not Active | Not Active | – | –
CC[C@H]1[C@@H]2C[C@H]3[C@@H]4N(C)c5ccccc5[C@]45C[C@@H]([C@@H]2[C@H]5O)N3[C@@H]1O [AJMALINE] | Not Active | Not Active | Not Active | Not Active | Not Active | Not Active | Not Active | Not Active | Not Active | Not Active | Not Active | – | –
NC12CC3CC(CC(C3)C1)C2 [AMANTADINE] | Not Active | Not Active | Not Active | Not Active | Not Active | Not Active | Not Active | Not Active | Not Active | Not Active | Not Active | – | –
NCCCNCCSP(=O)(O)O [AMIFOSTINE] | Not Active | Not Active | Not Active | Not Active | Not Active | Not Active | Not Active | Not Active | Not Active | Not Active | Not Active | – | –
CN(C)CCC=C1c2ccccc2CCc2ccccc21 [AMITRIPTYLINE] | Not Active | Not Active | Not Active | Not Active | Not Active | Not Active | Not Active | Not Active | – | Not Active | Not Active | – | –
CC(=O)Oc1ccccc1C(=O)O [ASPIRIN] | Not Active | Not Active | Not Active | Not Active | Not Active | Not Active | Not Active | Not Active | Not Active | Not Active | Not Active | – | –
CC(C)c1c(C(=O)Nc2ccccc2)c(-c2ccccc2)c(-c2ccc(F)cc2)n1CC[C@@H](O)C[C@@H](O)CC(=O)O [ATORVASTATIN] | Not Active | Not Active | Not Active | Not Active | Not Active | Not Active | Not Active | Not Active | Not Active | Not Active | Not Active | – | –
CC(=O)OC[C@H]1O[C@@H](n2ncc(=O)[nH]c2=O)[C@H](OC(C)=O)[C@@H]1OC(C)=O [AZARIBINE] | Not Active | Not Active | Not Active | Not Active | Not Active | Not Active | Not Active | Not Active | Not Active | Not Active | Not Active | – | –
C[C@H]1[C@H](NC(=O)/C(=N\OC(C)(C)C(=O)O)c2csc(N)n2)C(=O)N1S(=O)(=O)O [AZTREONAM] | Not Active | Not Active | Not Active | Not Active | Not Active | Not Active | Not Active | Not Active | Not Active | Not Active | Not Active | – | –
O=C(O)CCNC(=O)c1ccc(/N=N/c2ccc(O)c(C(=O)O)c2)cc1 [BALSALAZIDE] | Not Active | Not Active | Not Active | Not Active | Not Active | Not Active | Not Active | Not Active | Not Active | Not Active | Not Active | – | –
COc1cc(OC)c(C(=O)CCCN2CCCC2)c(OC)c1 [BUFLOMEDIL] | Not Active | Not Active | Not Active | Not Active | Not Active | Not Active | Not Active | Not Active | Not Active | Not Active | Not Active | – | –
Cn1c(=O)c2c(ncn2C)n(C)c1=O [CAFFEINE] | Not Active | Not Active | Not Active | Not Active | Not Active | Not Active | Not Active | Not Active | Not Active | Not Active | Not Active | – | –
ClC(Cl)(Cl)Cl [CARBON TETRACHLORIDE] | Not Active | Not Active | Not Active | Not Active | Not Active | Not Active | Not Active | Not Active | Not Active | Not Active | Not Active | – | –
CO/N=C(\C(=O)N[C@@H]1C(=O)N2C(C(=O)O)=C(COC(C)=O)CS[C@H]12)c1csc(N)n1 [CEFOTAXIME] | Not Active | – | Not Active | Not Active | Not Active | Not Active | Not Active | Not Active | Not Active | Not Active | Not Active | – | –
CNC1=Nc2ccc(Cl)cc2C(c2ccccc2)=[N+]([O-])C1 [CHLORDIAZEPOXIDE] | Not Active | Not Active | Not Active | Not Active | Not Active | Not Active | – | – | Not Active | Not Active | Not Active | 1430 nM | 1160 nM
Cc1cc(O)cc(C)c1Cl [CHLOROXYLENOL] | Not Active | Not Active | Not Active | Not Active | Not Active | Not Active | Not Active | Not Active | Not Active | Not Active | Not Active | – | –
CCCNC(=O)NS(=O)(=O)c1ccc(Cl)cc1 [CHLORPROPAMIDE] | Not Active | Not Active | Not Active | Not Active | Not Active | Not Active | Not Active | Not Active | Not Active | Not Active | Not Active | – | –
NS(=O)(=O)c1cc(C2(O)NC(=O)c3ccccc32)ccc1Cl (stereo not drawn) [CHLORTHALIDONE] | Not Active | Not Active | Not Active | Not Active | Not Active | Not Active | Not Active | Not Active | Not Active | Not Active | Not Active | – | –
